Non-standard residues stand in square brackets, D forms with d. Residues, ends and D or L forms follow the SMILES beside them. pGlu = O=C1CC[C@@H](C(=O)O)N1
Columns and labels:
Homo sapiens [1] = species: Homo sapiens; test: Liver toxicity in human assessed as induction of drug-induced liver injury by measuring verified drug-induced liver injury concern status
Homo sapiens [2] = species: Homo sapiens; test: Liver toxicity in human assessed as induction of drug-induced liver injury by measuring severity class index
Wherever DILI severity class is given: key of the grades not given here.

Structure (SMILES)	DILI_Concern (Homo sapiens [1])	DILI_severity_class (Homo sapiens [2])
CNC(=O)c1c(I)c(NC(C)=O)c(I)c(C(=O)[O-])c1I.[Na+] [IOTHALAMATE SODIUM]	No-Dili-Concern	0
COc1ccc(CC2c3cc(OC)c(OC)cc3CC[N+]2(C)CCC(=O)OCCCCCOC(=O)CC[N+]2(C)CCc3cc(OC)c(OC)cc3C2Cc2ccc(OC)c(OC)c2)cc1OC (stereo not given)	No-Dili-Concern	0
NC(=O)CC[C@@H]1NC(=O)[C@H](Cc2ccccc2)NC(=O)[C@H](Cc2ccc(O)cc2)NC(=O)CCSSC[C@@H](C(=O)N2CCC[C@H]2C(=O)N[C@H](CCCN=C(N)N)C(=O)NCC(N)=O)NC(=O)[C@H](CC(N)=O)NC1=O [DESMOPRESSIN]	Ambiguous-Dili-Concern	3
CN1C(=O)OC(C)(C)C1=O [TRIMETHADIONE]	Ambiguous-Dili-Concern	5
CN(C)CCOC(c1ccccc1)c1ccccc1 [DIPHENHYDRAMINE]	No-Dili-Concern	0
CC(=O)Nc1c(I)c(NC(C)=O)c(I)c(C(=O)O)c1I [DIATRIZOIC ACID]	No-Dili-Concern	0
Sc1ncnc2nc[nH]c12 [MERCAPTOPURINE ANHYDROUS]	Most-Dili-Concern	8
CNCC[C@H](Oc1cccc2ccccc12)c1cccs1 [DULOXETINE]	Most-Dili-Concern	8
CC(=O)Oc1cc2c(s1)CCN(C(C(=O)C1CC1)c1ccccc1F)C2.Cl (stereo not given) [PRASUGREL HYDROCHLORIDE]	Less-Dili-Concern	0
Nc1nc(F)nc2c1ncn2[C@@H]1O[C@H](COP(=O)(O)O)[C@@H](O)[C@@H]1O [FLUDARABINE PHOSPHATE]	No-Dili-Concern	0
Cc1cc(C)cc(OCC2CNC(=O)O2)c1 (stereo not given) [METAXALONE]	Less-Dili-Concern	5
COC(=O)CCc1ccc(OCC(O)CNC(C)C)cc1 (stereo not given) [ESMOLOL]	No-Dili-Concern	0
COc1cc2nc(N3CCN(C(=O)C4COc5ccccc5O4)CC3)nc(N)c2cc1OC (stereo not given) [DOXAZOSIN]	Ambiguous-Dili-Concern	3
Oc1ncnc2[nH]ncc12 [ALLOPURINOL]	Most-Dili-Concern	8
CC(=O)Oc1ccc(C2(c3ccc(OC(C)=O)cc3)C(=O)N(C(C)=O)c3ccccc32)cc1 [TRIACETYLDIPHENOLISATIN]	Most-Dili-Concern	8
C=C(c1ccc(C(=O)O)cc1)c1cc2c(cc1C)C(C)(C)CCC2(C)C [BEXAROTENE]	Most-Dili-Concern	8
C[C@]12CCC(=O)C=C1CC[C@H]1[C@@H]3CC[C@](O)(C(=O)CO)[C@@]3(C)C[C@H](O)[C@@]12F [FLUDROCORTISONE]	No-Dili-Concern	0
O=S(=O)(O)O[C@@H]1[C@@H](OS(=O)(=O)O)[C@H](O[C@@H]2CO[C@@H](O)[C@H](OS(=O)(=O)O)[C@H]2OS(=O)(=O)O)OC[C@H]1O	Ambiguous-Dili-Concern	3
O=C(O)COCCN1CCN(C(c2ccccc2)c2ccc(Cl)cc2)CC1 (stereo not given) [CETIRIZINE]	Less-Dili-Concern	3
NC(=O)C1CCN(CCCN2c3ccccc3Sc3ccc(Cl)cc32)CC1 [PIPAMAZINE]	Most-Dili-Concern	8
CC(C)C[C@H]1C(=O)N2CCC[C@H]2[C@]2(O)O[C@](NC(=O)[C@@H]3C=C4c5cccc6[nH]c(Br)c(c56)C[C@H]4N(C)C3)(C(C)C)C(=O)N12 [BROMOCRIPTINE]	Less-Dili-Concern	3
Clc1cccc(Cl)c1N=C1NCCN1 [CLONIDINE]	Ambiguous-Dili-Concern	3
CC(C)(C)NC[C@H](O)COc1ccccc1C1CCCC1 [PENBUTOLOL]	No-Dili-Concern	0
CCCNCC(O)COc1ccccc1C(=O)CCc1ccccc1 (stereo not given) [PROPAFENONE]	Less-Dili-Concern	3
O=C(CCNNC(=O)c1ccncc1)NCc1ccccc1 [NIALAMIDE]	Most-Dili-Concern	8

Structure (SMILES)	DILI_Concern (Homo sapiens [1])	DILI_severity_class (Homo sapiens [2])
CCN(CCO)CCCC(C)Nc1ccnc2cc(Cl)ccc12 (stereo not given) [HYDROXYCHLOROQUINE]	Less-Dili-Concern	7
NC12CC3CC(CC(C3)C1)C2 [AMANTADINE]	Ambiguous-Dili-Concern	3
CN1CCCCC1CCN1c2ccccc2Sc2ccc([S+](C)[O-])cc21 (stereo not given) [MESORIDAZINE]	Ambiguous-Dili-Concern	5
COC(=O)C1=C(C)NC(C)=C(C(=O)OCCN(C)Cc2ccccc2)C1c1cccc([N+](=O)[O-])c1 (stereo not given) [NICARDIPINE]	Ambiguous-Dili-Concern	3
CN/C(=N/CCSCc1nc[nH]c1C)NC#N [CIMETIDINE]	Less-Dili-Concern	2
C[C@]12C=CC(=O)C=C1CC[C@@H]1[C@@H]2C(=O)C[C@@]2(C)[C@H]1CC[C@]2(O)C(=O)CO [PREDNISONE]	Less-Dili-Concern	3
CCNC(=O)[C@@H]1CCCN1C(=O)[C@H](CCCNC(=N)N)NC(=O)[C@H](CC(C)C)NC(=O)[C@H](CC(C)C)NC(=O)[C@H](Cc1ccc(O)cc1)NC(=O)[C@H](CO)NC(=O)[C@H](Cc1c[nH]c2ccccc12)NC(=O)[C@H](Cc1c[nH]cn1)NC(=O)[C@@H]1CCC(=O)N1 ([pGlu]HWSYLLRP-NHEt)	Less-Dili-Concern	3
Cc1ccc(O)c([C@H](CCN(C(C)C)C(C)C)c2ccccc2)c1 [TOLTERODINE]	No-Dili-Concern	0
CN(CCOc1ccc(CC2SC(=O)NC2=O)cc1)c1ccccn1 (stereo not given) [ROSIGLITAZONE]	Less-Dili-Concern	3
CC(=O)[C@@]1(O)CC[C@H]2[C@@H]3C=C(C)C4=CC(=O)CC[C@]4(C)[C@H]3CC[C@@]21C	Ambiguous-Dili-Concern	1
NNCCc1ccccc1 [PHENELZINE]	Less-Dili-Concern	3
CN1c2c(nc(N)[nH]c2=O)NC[C@@H]1CNc1ccc(C(=O)N[C@@H](CCC(=O)[O-])C(=O)[O-])cc1.[Ca+2] [LEVOMEFOLATE CALCIUM]	No-Dili-Concern	0
Nc1c(CC(=O)O)cccc1C(=O)c1ccc(Br)cc1 [BROMFENAC]	Most-Dili-Concern	8
CCCCCCCN(CC)CCCC(O)c1ccc(NS(C)(=O)=O)cc1 (stereo not given) [IBUTILIDE]	No-Dili-Concern	0
Cc1cc2nc3c(=O)[nH]c(=O)nc-3n(C[C@H](O)[C@H](O)[C@H](O)CO)c2cc1C [RIBOFLAVIN]	No-Dili-Concern	0
CC(C)NCC(O)COc1cccc2ccccc12 (stereo not given) [PROPRANOLOL]	Ambiguous-Dili-Concern	3
CNCCCC1c2ccccc2C=Cc2ccccc21 [PROTRIPTYLINE]	No-Dili-Concern	0
CC1=C(C(=O)O)N2C(=O)[C@@H](NC(=O)[C@H](N)c3ccc(O)cc3)[C@H]2SC1 [CEFADROXIL]	Less-Dili-Concern	7
CC[C@H](C)[C@@H]1NC(=O)[C@H](Cc2ccc(O)cc2)NC(=O)[C@@H](N)CSSC[C@@H](C(=O)N2CCC[C@H]2C(=O)N[C@@H](CC(C)C)C(=O)NCC(N)=O)NC(=O)[C@H](CC(N)=O)NC(=O)[C@H](CCC(N)=O)NC1=O [OXYTOCIN]	No-Dili-Concern	0
COc1cccc2c1C(=O)c1c(O)c3c(c(O)c1C2=O)C[C@@](O)(C(=O)CO)C[C@@H]3O[C@H]1C[C@H](N)[C@H](O)[C@H](C)O1 [DOXORUBICIN]	Less-Dili-Concern	3
Cc1cnc(NC(=O)C2=C(O)c3ccccc3S(=O)(=O)N2C)s1 [MELOXICAM]	Less-Dili-Concern	3
CN[C@@H](C)[C@H](O)c1ccccc1 [EPHEDRINE]	No-Dili-Concern	0
CN(C)CCC=C1c2ccccc2C=Cc2ccccc21 [CYCLOBENZAPRINE]	Less-Dili-Concern	5
CCOc1ccccc1OCCN[C@H](C)Cc1ccc(OC)c(S(N)(=O)=O)c1 [TAMSULOSIN]	Less-Dili-Concern	0
NC(=O)C[S@@+]([O-])C(c1ccccc1)c1ccccc1 [ARMODAFINIL]	Ambiguous-Dili-Concern	3
